Values of other authors as cited in patent JP2007126392A, “タンパク質のリフォールディング剤” (Sanyo Chemical Industries Ltd, priority 2005, dated 2007).

Conditions: first acid dissociation constant (pKa1) where several protons dissociate

SMILES: O[Si](O)(O)O [ケイ酸]
- pKa: 9.86
